Test results as given in patent publication US20040101916A1, “Treatment of liver diseases” (priority 2002, published 2004).

Experiments:
GADD45β [1] = assay: Northern blot of GADD45β expression after SAMe treatment in CL-48 normal liver cells; assay type: cell-based; conditions: CL-48 cells, 0, 1.0 mM, 2.0 mM SAMe, 72 hours
Protocol: (§1) CL-48 and HepG2 cells were treated with 0, 1.0 mM, and 2.0 mM SAMe. After 72 hours of treatment, Northern blot was performed to analyze the expression of GADD45β, using 18S RNA as an internal loading control.

GADD45β [2] = assay: Northern blot of GADD45β expression after SAMe treatment in HepG2 cells; assay type: cell-based, human
Protocol: as §1
(§2) Expression of GADD45β after SAMe treatment under different p53 backgrounds was examined by Northern blot.

GADD45β [3] = assay: Northern blot of GADD45β expression after SAMe treatment in Hep3B (p53 null); assay type: cell-based, human
Excerpt: as §2

[4] = tested on: CCAAT/NF-Y boxes of the GADD45β promoter region; assay: Gel retardation / super-shift assay, nuclear proteins of CL-48 cells on CCAAT/NF-Y boxes of the GADD45β promoter; assay type: cell-based; conditions: CL-48 nuclear proteins
Protocol: End-labeled oligonucleotides corresponding to the CCAAT/NF-Y boxes of the GADD45β promoter region were incubated with the extracted nuclear proteins, and the binding complexes were then separated on a 6% retardation gel. Protein binding sites on the GADD45β promoter Pα region were identified using unlabeled oligonucleotide competitors and NF-Y antibodies.

[5] = tested on: NF-κB box of the GADD45β promoter region; assay: Gel retardation assay, nuclear proteins of CL-48 cells on NF-κB box of the GADD45β promoter; assay type: cell-based; conditions: CL-48 nuclear proteins, 48 hours after 2.0 mM SAMe or 200 mM alcohol, compared to non-treated control cells
Protocol: Nuclear proteins were extracted as mentioned above. End-labeled oligonucleotides corresponding to the NF-κB box of the GADD45β promoter region were incubated with the extracted nuclear proteins, and the binding complexes were then separated on a 6% retardation gel.

GADD45α = conditions: HepG2 clone, Northern blot
Protocol: (§3) Expression of GADD45α and GADD45β after alcohol treatment was determined by Northern blot in HepG2 clone.

GADD45β [6] = conditions: HepG2 clone, Northern blot
Protocol: as §3

SMILES	induction of GADD45β expression (GADD45β [1])	expression of GADD45β after SAMe treatment (GADD45β [2]; HepG2 (p53 wild type), different dose ranges)	induction of GADD45β expression (GADD45β [2]; HepG2 cells, 0, 1.0 mM, 2.0 mM SAMe, 72 hours)	expression of GADD45β after SAMe treatment (GADD45β [3])	amount of major protein-binding band on CCAAT/NF-Y oligonucleotides ([4]; 48 hours after 2.0 mM SAMe, compared to non-treated controls)	super-shift of binding complex with NF-Y antibodies ([4]; SAMe-treated samples)	amount of binding complexes on NF-κB box oligonucleotides [5]	expression of GADD45α after alcohol treatment (GADD45α)	expression of GADD45β after alcohol treatment (GADD45β [6])
C[S+](CC[C@H](N)C(=O)O)C[C@H]1O[C@@H](n2cnc3c(N)ncnc32)[C@H](O)[C@@H]1O (stereo partly shown) [SAMe, S-Adenosylmethionine]	induced by a low dose of SAMe in CL-48 cells, and the induction reaches plateau at a higher dose of SAMe	up-regulated	the induction remains dose-dependent	failed to be induced	amount of a major band decreased	the binding complex is shifted	decreased amount of one binding complex and an increased amount of another binding complex		
CCO [alcohol]							decreased amount of one binding complex and an increased amount of another binding complex	increases in a dose-dependent manner	does not change
